The results in this text go back to US20120239131A1, “METHODS AND APPARATUS FOR TREATMENT OF ANEURYSMAL TISSUE” (Medtronic Vascular, Inc., priority 2011, published 2012).

Common to all, as to type: in vivo, ApoE−/− mice
Test [1] deals with genes involved in the pathophysiology of AAA. Briefly: Drug inhibition effect on differentially expressed genes, overall. The settings on record: for Down-regulation of genes involved in the pathophysiology of AAA: ApoE−/− + Ang II AAA model, summary of Table 2; for Total Score: sum of heat map grades over 25 genes, ApoE−/− + Ang II group scored 55. On the procedure: (§1) ApoE−/− mice used in this study were divided into different pretreatment groups: 1) Fluvastatin-MF; 2) Doxycycline-MD; 3) Irbesartan-MI; 4) Telmisartan-MT; 5) Control (water) and fed medicated chow or medicated drinking water 1 week prior to pump implantation. AngII (1000 ng·kg^−1 of body weight·min^−1) was infused subcutaneously via Alzet mini-osmotic pumps for 28 days. All mice were maintained on the medicated chow (MI & MT) or medicated drinking water (MF & MD) treatments which were delivered daily for a total of 28 days following pump implantation.
(§2) In order to determine the effect of the various treatments on the progressive enlargement of the experimental AAAs the mice were followed with high frequency trans-abdominal ultrasound. Maximum aortic diameter was measured and recorded prior to pump implantation and then at 3, 7, 14, 21, and 28 days. All mice were sacrificed 28 days after pump implantation. Aortae were harvested and subjected to either histological analysis (Elastic Masson trichome, MAC2, CD31 and TUNEL staining) and analysis of mural gene expression. Plasma drug concentrations of experimental compounds were quantified on the day of sacrifice using high performance liquid chromatography (HPLC).
(§3) Total RNA was extracted from homogenized aortas using the Qiazol lysis reagent and RNeasy Lipid Tissue Mini kit. DNAse treatment was included in the procedure. RNA concentration was determined utilizing the Quant iT RNA assay kit. Complimentary deoxyribonucleic acid (cDNA) was synthesized from 1 μg RNA using High reverse cDNA transcription kit. Briefly the reaction tubes containing RNA, reverse transcriptase, buffer, RNAse inhibitor, and nuclease free water were incubated at 25° C. for 10 minutes to allow annealing. Reverse transcription was performed at 37° C. for 120 min, followed by a 5 sec incubation at 85° C. to inactivate the reverse transcriptase enzyme. The cDNA samples were cooled at 4° C. and stored at −80° C. until further use.
(§4) Real time PCR was performed using a 384-well Taqman low density array (TLDA) card. Each sample specific PCR mix contained 50 ng of total RNA converted to cDNA. The PCR reaction for Taqman assays contained 50 μl Master Mix (Taqman Universal PCR Master Mix,) and 50 ul of cDNA and RNAase free water. Assays were performed to include appropriate controls (no template control). The RT-PCR protocol included an initial step of 50° C. (2 minutes) […], denaturation by a hot start at 95° C. for 10 min, followed by 40 cycles of a 2 step program (denaturation at 95° C. for 15 secs for primer annealing/extension at 60° C. for 1 min). Fluorescence data was collected at 60° C. Fluorescence was quantified with ABI PRISM 7900HT Sequence Detection System. To verify amplification of a specific target cDNA, data generated was analyzed using SDS 2.2.3 software (Sequence Detection System Software, Applied Biosystems). For all amplification plots, the baseline data were set with the automatic CT function available with SDS 2.2.3 calculating the optimal baseline range and threshold value by using the AutoCT algorithm. According to the manufacturer's instruction, a CT value of ≧39 corresponds to nonspecific amplification marking the limits of detection. For endogenous control GAPDH was normalized to B2M. For relative quantification (RQ), pooled ApoE−/− control was used as the calibrator (with expression equal to 1).

In the next test the test system is aneurysm. Briefly: Aneurysm incidence over time, ApoE−/−+Ang II AAA model. The settings on record: aneurysm = dissection or more than 50% increase in diameter, versus doxycycline and saline control. On the procedure:
as §1, §2
Aneurysm was defined as either the presence of dissection or more than 50% increase in diameter.

The next test concerns AAA. Description: Aortic diameter by ultrasonography, ApoE−/−+Ang II AAA model. The settings on record: pretreatment 1 week before Ang II infusion, followed to 28 days, versus control and doxycycline. An excerpt:
The ApoE^−/−+Ang II AAA model is well established and supported by current scientific literature. Mice genetically predisposed to hypercholesterolemia develop aneurysms when treated with angiotensin II. Aneurysms generally develop within the first week after pump implantation and share many important pathologic characteristics with human AAA disease. ApoE−/− mice used in this study were divided into different pretreatment groups: 1) Fluvastatin-MF; 2) Doxycycline-MD; 3) Irbesartan-MI; 4) Telmisartan-MT; 5) Control (water) and fed medicated chow or medicated drinking water 1 week prior to pump implantation. AngII (1000 ng·kg^−1 of body weight·min^−1) was infused subcutaneously via Alzet mini-osmotic pumps for 28 days. All mice were maintained on the medicated chow (MI & MT) or medicated drinking water (MF & MD) treatments which were delivered daily for a total of 28 days following pump implantation. In order to determine the effect of the various treatments on the progressive enlargement of the experimental AAAs the mice were followed with high frequency trans-abdominal ultrasound. Maximum aortic diameter was measured and recorded prior to pump implantation and then at 3, 7, 14, 21, and 28 days. All mice were sacrificed 28 days after pump implantation. Aortae were harvested and subjected to either histological analysis (Elastic Masson trichome, MAC2, CD31 and TUNEL staining) and analysis of mural gene expression. Plasma drug concentrations of experimental compounds were quantified on the day of sacrifice using high performance liquid chromatography (HPLC).

The subject of the next test is Cybb. Briefly: Aortic mural gene expression, RT-PCR (TLDA). As to conditions: fold change over ApoE−/− control; aorta, 28 days Ang II infusion. On the procedure: as §1, §2, §3, §4
For a further test, the system named is Tgfβ1. Briefly: Aortic mural gene expression, RT-PCR (TLDA). The settings on record: fold change over ApoE−/− control; aorta, 28 days Ang II infusion. On the procedure:
as §1, §2, §3, §4

Another test concerns TNF-α. Briefly: Aortic mural gene expression, RT-PCR (TLDA). The settings on record: fold change over ApoE−/− control; aorta, 28 days Ang II infusion. On the procedure:
as §1, §2, §3, §4

The next test deals with ITGB2. Description: Aortic mural gene expression, RT-PCR (TLDA). As to conditions: fold change over ApoE−/− control; aorta, 28 days Ang II infusion. On the procedure: as §1, §2, §3, §4
Another test relates to Cathepsin B. Briefly: Aortic mural gene expression, RT-PCR (TLDA). As to conditions: fold change over ApoE−/− control; aorta, 28 days Ang II infusion. On the procedure: as §1, §2, §3, §4
For the next test, the system named is IL-7. Description: Aortic mural gene expression, RT-PCR (TLDA). As to conditions: fold change over ApoE−/− control; aorta, 28 days Ang II infusion. How it is done: as §1, §2, §3, §4
Another test has as its system Osteopontin. Description: Aortic mural gene expression, RT-PCR (TLDA). As to conditions: fold change over ApoE−/− control; aorta, 28 days Ang II infusion. On the procedure:
as §1, §2, §3, §4

The next test relates to Vav1. Description: Aortic mural gene expression, RT-PCR (TLDA). As to conditions: fold change over ApoE−/− control; aorta, 28 days Ang II infusion. How it is done: as §1, §2, §3, §4
In the next test the test system is MAPK8. Description: Aortic mural gene expression, RT-PCR (TLDA). The settings on record: fold change over ApoE−/− control; aorta, 28 days Ang II infusion. On the procedure: as §1, §2, §3, §4
In the next test the test system is MMP-8. Briefly: Aortic mural gene expression, RT-PCR (TLDA). As to conditions: fold change over ApoE−/− control; aorta, 28 days Ang II infusion. On the procedure:
as §1, §2, §3, §4

The subject of another test is CCR2. Description: Aortic mural gene expression, RT-PCR (TLDA). As to conditions: fold change over ApoE−/− control; aorta, 28 days Ang II infusion. On the procedure: as §1, §2, §3, §4
Another test has as its system LOX. Description: Aortic mural gene expression, RT-PCR (TLDA). The settings on record: fold change over ApoE−/− control; aorta, 28 days Ang II infusion. How it is done:
as §1, §2, §3, §4

Regarding `CCCc1nc2c(C)cc(-c3nc4ccccc4n3C)cc2n1Cc1ccc(-c2ccccc2C(=O)O)cc1` [Telmisartan], the “Down-regulation of genes involved in the pathophysiology of AAA” value in [1] is on record as “down-regulating the expression of genes”. The “Total Score” value in test [1] stood at 6. For the same compound, the figures for the “Inhibition of aneurysm development (aneurysm incidence)” value in the test with aneurysm and in the test with aneurysm (listed as telmisartan) were “inhibited aneurysm development well” and “effective in inhibiting aneurysm development”, respectively. Also, the “Inhibition of aneurysm development/growth (aortic diameter)” value is given as “effective in inhibiting aneurysm development” in the test on AAA and “effective in inhibiting/preventing aneurysm development” in the test with AAA (listed as telmisartan). Moreover, the Cybb expression result in the test on Cybb is on record as “− (0 to 1 = −)”. Also, in the test on Tgfβ1, the Tgfβ1 expression result is “− (0 to 1 = −)”. Moreover, in the test with TNF-α, the TNF-α expression result was “− (0 to 1 = −)”. In addition, the ITGB2 expression entry with ITGB2 is “− (0 to 1 = −)”. Besides, the “Cathepsin B expression” value with Cathepsin B is recorded as “− (0 to 1 = −)”. For the same compound, the IL-7 expression entry with IL-7 is given as “+ (1.1 to 1.5 = +)”. The Osteopontin expression entry with Osteopontin is “− (0 to 1 = −)”. Besides, the Vav1 expression entry in the test with Vav1 is listed as “− (0 to 1 = −)”. The MAPK8 expression result in the test with MAPK8 was “++ (1.51 to 3 = ++)”. For the same compound, the MMP-8 expression result in the test on MMP-8 is “− (0 to 1 = −)”. For the same compound, in the test with CCR2, the CCR2 expression result is “− (0 to 1 = −)”. Also, the LOX expression entry with LOX is “− (0 to 1 = −)”.

As for `CC(C)n1c(/C=C/C(O)CC(O)CC(=O)O)c(-c2ccc(F)cc2)c2ccccc21` (stereo not shown) [Fluvastatin], in test [1], the “Down-regulation of genes involved in the pathophysiology of AAA” value is listed as “down-regulating the expression of genes” and the “Total Score” value was found to be 45. For the same compound, in the test on aneurysm, the “Inhibition of aneurysm development (aneurysm incidence)” value was “effective in inhibiting aneurysm development”. Further, the “Inhibition of aneurysm development/growth (aortic diameter)” value with AAA is “relative good inhibition of AAA”. Moreover, the Cybb expression result in the test with Cybb is recorded as “++ (1.51 to 3 = ++)”. In addition, in the test on Tgfβ1, the Tgfβ1 expression result is reported as “+++ (3.1 to 10 = +++)”. Also, the TNF-α expression result with TNF-α is “++ (1.51 to 3 = ++)”. For the same compound, in the test with ITGB2, the ITGB2 expression entry was “++ (1.51 to 3 = ++)”. In addition, the “Cathepsin B expression” value with Cathepsin B was “+ (1.1 to 1.5 = +)”. The IL-7 expression result in the test on IL-7 was “− (0 to 1 = −)”. The Osteopontin expression result in the test with Osteopontin is on record as “++++ (>10.1 = ++++)”. In addition, the Vav1 expression result with Vav1 is listed as “++ (1.51 to 3 = ++)”. Besides, the MAPK8 expression result in the test with MAPK8 is “− (0 to 1 = −)”. The MMP-8 expression entry with MMP-8 is reported as “++++ (>10.1 = ++++)”. Besides, the CCR2 expression result in the test on CCR2 is “+++ (3.1 to 10 = +++)”. The LOX expression entry with LOX is “− (0 to 1 = −)”.
